# Like-named read-outs stand apart in the source and are kept apart here.
# Key:
# Format in all cases: cell-based
# [1] = system: T-Rex 293 cells lacking increased expression of estrogen receptor alpha protein; test: Cellular growth inhibition assay, T-Rex 293 cells, (−) doxycycline; conditions: T-REx-293, 72 h, 72 hours
# Procedure, shortened: (§1)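 Growth of a doxycycline-inducible ERα T-Rex 293 clone, induced or not with 3 ng/mL doxycycline, was followed for 72 h with test compound in hormone-depleted medium. CellTiter-Glo luminescence gave GI50.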
# [2] = system: T-Rex 293 cells having increased expression of estrogen receptor alpha protein; test: Cellular growth inhibition assay, T-Rex 293 cells, (+) doxycycline; conditions: T-REx-293, 72 h, 72 hours
# Procedure, shortened: as §1
# [3] = system: MCF7 cells (ATCC #HTB-22); test: Cellular growth inhibition assay, MCF7 cells purchased from ATCC; conditions: Homo sapiens, MCF7, 144 h, Table 8-A; MCF7 cells purchased from ATCC; six days; CellTiter-Glo; read-out: GI50
# Procedure, shortened: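 GI50 values come from a four-parameter fit of CellTiter-Glo 2.0 luminescence after six days of compound exposure at 37° C. Seeding density depended on the source: 225 cells/well for ECACC MCF7, 1,500 for ATCC. Medium was RPMI 1640 with 10% FBS and 0.2 U/ml insulin.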
# [4] = T-Rex 293 cells without doxycycline, CellTiter-Glo 2.0, read-out: (−) Dox TRex ERa (GI50)
# [5] = T-Rex 293 cells with doxycycline-induced ERα expression, CellTiter-Glo 2.0, read-out: (+) Dox TRex ERa (GI50)
# [6] = Table 7-A, T-Rex 293 cells without doxycycline (lacking increased ERα expression), CellTiter-Glo, read-out: (−) Dox GI50
# [7] = Table 7-A, T-Rex 293 cells with doxycycline (increased ERα expression), CellTiter-Glo, read-out: (+) Dox GI50
GI50 [3] [nM],SMILES,"GI50 [1, 4] [nM]","GI50 [2, 5] [nM]","GI50 ([1]; Table 7-B, T-Rex 293 cells without doxycycline (lacking increased ERα expression), CellTiter-Glo, read-out: (−) Dox GI50) [nM]","GI50 ([2]; Table 7-B, T-Rex 293 cells with doxycycline (increased ERα expression), CellTiter-Glo, read-out: (+) Dox GI50) [nM]","GI50 [1, 6] [nM]","GI50 [2, 7] [nM]"
50 to 500,"Cc1sc2c(c1C)C(c1ccc(N3CCC(CN4CCN(c5ccc([C@@H]6c7ccc8n[nH]cc8c7C[C@@H](C)N6CC(F)(F)F)nc5)CC4)CC3)cc1)=N[C@@H](C)c1nnc(C)n1-2 [I-27, (S)-2,3,6,9-tetramethyl-4-(4-(4-((4-(6-((6S,8R)-8-methyl-7-(2,2,2-trifluoroethyl)-6,7,8,9-tetrahydro-2H-pyrazolo[4,3-f]isoquinolin-6-yl)pyridin-3-yl)piperazin-1-yl)methyl)piperidin-1-yl)phenyl)-6H-thieno[3,2-f][1,2,4]triazolo[4,3-a][1,4]diazepine]",500 to 2500,< 50,–,–,–,–
50 to 500,COc1cc(N2CCN(CC3(O)CCN(c4ccc(C5=N[C@@H](C)c6nnc(C)n6-c6sc(C)c(C)c65)cc4)CC3)CC2)ccc1C1=C(c2ccccc2Cl)CCCc2cc(C(=O)O)ccc21 [IV-65],–,–,500 to 2500,< 50,–,–
50 to 500,Cc1sc2c(c1C)C(c1ccc(N3CCC(O)(CN4CCN(c5ccc([C@H]6c7ccc(C(=O)O)cc7CC[C@H]6c6ccc(F)cc6F)cc5)CC4)CC3)cc1)=N[C@@H](C)c1nnc(C)n1-2 [III-205],–,–,–,–,500 to 2500,50 to 500
< 50,Cc1sc2c(c1C)C(c1ccc(N3CCC4(CCN(CC5CCN(c6ccc([C@@H]7c8ccc(O)cc8CC[C@@H]7c7ccccc7)cc6)CC5)CC4)C3)cc1)=N[C@@H](Cc1ncco1)c1nnc(C)n1-2 [III-202],–,–,–,–,50 to 500,< 50
50 to 500,"CCN(CCCCNC(=O)C[C@@H]1N=C(c2ccc(Cl)cc2)c2c(sc(C)c2C)-n2c(C)nnc21)CCOc1ccc(C(=O)c2c(-c3ccc(O)cc3)sc3cc(O)ccc23)cc1 [I-1, (S)-2-(4-(4-chlorophenyl)-2,3,9-trimethyl-6H-thieno[3,2-f][1,2,4]triazolo[4,3-a][1,4]diazepin-6-yl)-N-(4-(ethyl(2-(4-(6-hydroxy-2-(4-hydroxyphenyl)benzo[b]thiophene-3-carbonyl)phenoxy)ethyl)amino)butyl) acetamide]",50 to 500,50 to 500,–,–,–,–
< 50,Cc1sc2c(c1C)C(c1ccc(N3CC(C(=O)N4CCN(CC5CN(c6ccc([C@@H]7c8ccc(O)cc8CC[C@@H]7c7ccccc7)cc6)C5)CC4)C3)cc1)=N[C@@H](C)c1nnc(C)n1-2 [III-165],–,–,–,–,50 to 500,< 50
50 to 500,Cc1sc2c(c1C)C(c1ccc(N[C@H]3CCN(CCOc4ccc([C@@H]5c6ccc(O)cc6CC[C@@H]5c5ccccc5)cc4)C3)cc1)=NC(Cc1ncco1)c1nnc(C)n1-2 (stereo partly drawn) [III-28],–,–,–,–,50 to 500,50 to 500
50 to 500,Cc1sc2c(c1C)C(c1ccc(C3CN(C[C@H]4CC[C@H](CN5CC(c6ccc([C@@H]7c8ccc(O)cc8CC[C@@H]7c7ccccc7)cc6)C5)CC4)C3)cc1)=N[C@@H](C)c1nnc(C)n1-2 [III-234],–,–,–,–,500 to 2500,< 50
500 to 2500,"Cc1sc2c(c1C)C(c1ccc(N3CCN(CC4CCN(c5ccc([C@@H]6c7ccc(O)cc7CC[C@@H]6c6ccccc6)cc5)CC4)CC3)cc1)=N[C@@H](C)c1nnc(C)n1-2 (single isomer, unassigned) [I-37b]",–,–,–,–,500 to 2500,500 to 2500
< 50,"Cn1cc(-c2cc(C(C)(C)O)ccc2Oc2ccc(N3CCC4(CCN(CCOc5ccc(C(=O)c6c(-c7ccc(O)cc7)sc7cc(O)ccc67)cc5)CC4)C3)cc2)c2cc[nH]c2c1=O [I-35, 4-(2-(4-(8-(2-(4-(6-hydroxy-2-(4-hydroxyphenyl)benzo[b]thiophene-3-carbonyl)phenoxy)ethyl)-2,8-diazaspiro[4.5]decan-2-yl)phenoxy)-5-(2-hydroxypropan-2-yl)phenyl)-6-methyl-1,6-dihydro-7H-pyrrolo[2,3-c]pyridin-7-one]",< 50,< 50,–,–,–,–
50 to 500,Cc1sc2c(c1C)C(c1ccc(CC(=O)N3CCC4(CCN(c5ccc(C6=C(c7ccc(Cl)cc7Cl)CCCc7cc(C(=O)O)ccc76)cc5)CC4)C3)cc1)=N[C@@H](C)c1nnc(C)n1-2 [IV-12],–,–,–,–,500 to 2500,50 to 500
< 50,COc1cc(N2CCN(CC3(O)CCN(c4ccc(C5=N[C@@H](C)c6nnc(C)n6-c6sc(C)c(C)c65)cc4)CC3)CC2)ccc1[C@@H]1c2ccc(O)cc2CC[C@@H]1c1cccc(F)c1 [III-310],–,–,–,–,500 to 2500,< 50
50 to 500,Cc1sc2c(c1C)C(c1ccc(N3CCC(CN4CCC(c5ccc([C@@H]6c7ccc(O)cc7CC[C@@H]6c6ccccc6)cc5)CC4)CC3)cc1)=N[C@@H](C)c1nnc(C)n1-2 [III-132],–,–,–,–,500 to 2500,50 to 500
50 to 500,"Cc1sc2c(c1C)C(c1ccc(Cl)cc1)=N[C@@H](CC(=O)NCCCCCCCOc1ccc(C(=O)c3c(-c4ccc(O)cc4)sc4cc(O)ccc34)cc1)c1nnc(C)n1-2 [I-16, (S)-2-(4-(4-chlorophenyl)-2,3,9-trimethyl-6H-thieno[3,2-f][1,2,4]triazolo[4,3-a][1,4]diazepin-6-yl)-N-(7-(4-(6-hydroxy-2-(4-hydroxyphenyl)benzo[b]thiophene-3-carbonyl)phenoxy)heptyl)acetamide]",> 2500,> 2500,–,–,–,–
< 50,Cc1cc(C2=N[C@@H](C)c3nnc(C)n3-c3sc(C)c(C)c32)ccc1N1CC(CN2CCN(CC3CN(c4ccc(C5=C(c6ccc(Cl)cc6)CCCc6cc(C(=O)O)ccc65)cc4)C3)CC2)C1 [IV-64],–,–,–,–,500 to 2500,50 to 500
< 50,"COc1cc(N2CCN(CC3(O)CCN(c4cc(F)c(C5=N[C@@H](C)c6nnc(C)n6-c6sc(C)c(C)c65)cc4F)CC3)CC2)ccc1[C@@H]1c2ccc(O)cc2CC[C@@H]1c1ccccc1 [III-339, 1-(2,5-difluoro-4-((S)-2,3,6,9-tetramethyl-6H-thieno[3,2-f][1,2,4]triazolo[4,3-a][1,4]diazepin-4-yl)phenyl)-4-((4-(4-((1S,2S)-6-hydroxy-2-phenyl-1,2,3,4-tetrahydronaphthalen-1-yl)-3-methoxyphenyl)piperazin-1-yl)methyl)piperidin-4-ol]",–,–,–,–,> 2500,< 50
50 to 500,COc1cc([C@@H]2c3ccc(O)cc3CC[C@@H]2c2ccc(F)cc2)ccc1N1CCN(CC2(O)CCN(c3ccc(C4=N[C@@H](C)c5nnc(C)n5-c5sc(C)c(C)c54)cc3)CC2)CC1 [III-255],–,–,–,–,500 to 2500,< 50
< 50,Cc1sc2c(c1C)C(c1ccc(N3CC(O)(CC4CN(CC5CN(c6ccc(C7=C(c8ccccc8)CCCc8cc(C(=O)O)ccc87)cc6)C5)C4)C3)cc1)=N[C@@H](C)c1nnc(C)n1-2 [IV-43],–,–,–,–,50 to 500,< 50
50 to 500,Cc1sc2c(c1C)C(c1ccc(N3CCC(O)(CN4CCC(c5ccc([C@H]6c7ccc(O)cc7CC[C@H]6c6ccccc6)cc5)CC4)CC3)cc1)=N[C@@H](C)c1nnc(C)n1-2 [III-24],–,–,–,–,50 to 500,< 50

SMILES,GI50 [3] [nM],"GI50 [1, 4] [nM]","GI50 [2, 5] [nM]","GI50 ([1]; Table 7-B, T-Rex 293 cells without doxycycline (lacking increased ERα expression), CellTiter-Glo, read-out: (−) Dox GI50) [nM]","GI50 ([2]; Table 7-B, T-Rex 293 cells with doxycycline (increased ERα expression), CellTiter-Glo, read-out: (+) Dox GI50) [nM]","GI50 [1, 6] [nM]","GI50 [2, 7] [nM]"
Cc1sc2c(c1C)C(c1ccc(N[C@@H]3C[C@H]4CCC[C@@H](C3)N4CCOc3ccc([C@@H]4c5ccc(O)cc5CC[C@@H]4c4ccccc4)cc3)cc1)=NC(Cc1ncco1)c1nnc(C)n1-2 (stereo partly drawn) [III-64],50 to 500,–,–,–,–,50 to 500,50 to 500

# From patent US12558428B2, “Heterobifunctional compounds and their use in treating disease” (Halda Therapeutics OpCo, Inc., priority 2024, dated 2026)
